# Tests used:
# [1] = test system: solid tumor xenograft models; details: Carol et al. 2013; cited from earlier work
# [2] = test system: acute lymphoblastic leukemia (ALL) xenograft models with mixed-lineage leukemia (MLL) rearrangement; details: Carol et al. 2013; cited from earlier work
# [3] = test system: p53 wild-type vs. p53 mutant cell lines; details: Carol et al. 2013; cited from earlier work
# [4] = test system: human acute myeloid leukemia (AML) and human prostate tumor xenograft models harboring p53 wild-type; details: Tovar et al. 2013; cited from earlier work
# [5] = biological target: p53-MDM2 interaction (GST-MDM2 protein aa 23-117 / biotinylated p53 wt peptide) (Homo sapiens (Human), UniProt Q00987); experiment: MDM2-p53 Inhibition AlphaScreen; format: biochemical; details: 20 nM GST-MDM2 (aa 23-117), 20 nM biotinylated p53 wt peptide
# Description: MDM2-p53 Inhibition AlphaScreen
SMILES,IC50 [5] [nM],other results
CCOc1cc(C(C)(C)C)ccc1C1=N[C@@](C)(c2ccc(Cl)cc2)[C@@](C)(c2ccc(Cl)cc2)N1C(=O)N1CCN(CCCS(C)(=O)=O)CC1 [RG-7112],–,"tumor growth inhibition [1]: induced tumor growth inhibition; efficacy in xenograft models [2]: particularly efficacious; cytotoxic activity, median IC50 [3]: lower median IC50 values for p53 wild-type vs. p53 mutant cell lines"
CCOc1cc(C(C)(C)C)ccc1C1=N[C@@](C)(c2ccc(Cl)cc2)[C@@](C)(c2ccc(Cl)cc2)N1C(=O)N1CCN(CCCS(C)(=O)=O)CC1 [RG7112],–,antiproliferative and proapoptotic activity [4]: antiproliferative and proapoptotic activity of RG7112 has been observed
CNC(=O)c1ccc(N2C[C@H]3[C@@H](C2=O)[C@H](c2cccc(Cl)c2F)[C@]2(C(=O)Nc4cc(Cl)ccc42)N3CC2CC2)cc1 [Compound I-287],8,–
O=C1NCC[C@H]2[C@@H]1[C@H](c1cccc(Cl)c1F)[C@]1(C(=O)Nc3cc(Cl)ccc31)N2CC1CC1 [Compound I-2],112,–
N#Cc1ccc(N2CC[C@H]3[C@@H](C2=O)[C@H](c2cccc(Cl)c2F)[C@]2(C(=O)Nc4cc(Cl)ccc42)N3CC2CC2)cc1 [Compound I-86],159,–
NC(=O)c1ccc(N2C[C@H]3[C@@H](C2=O)[C@H](c2ccnc(Cl)c2F)[C@]2(C(=O)Nc4cc(Cl)ccc42)N3CC2CC2)cc1 [Compound I-288],8,–
CCOc1cccc(CN2[C@H]3CN(c4ccc(C(=O)O)cc4)C(=O)[C@H]3[C@H](c3cccc(Cl)c3F)[C@]23C(=O)Nc2cc(Cl)ccc23)c1 [Compound I-237],2,–
O=C(O)c1ccc(N2C[C@H]3[C@@H](C2=O)[C@H](c2cccc(Cl)c2F)[C@]2(C(=O)Nc4cc(Cl)ccc42)N3CC2CCC2)cc1 [Compound I-221],7,–
CC1CC1CN1[C@H]2CCNC(=O)[C@H]2[C@H](c2cccc(Cl)c2F)[C@]12C(=O)Nc1cc(Cl)ccc12 (some centres unmarked) [Compound I-13],272,–
O=C(NO)c1ccc(N2C[C@H]3[C@@H](C2=O)[C@H](c2cccc(Cl)c2F)[C@]2(C(=O)Nc4cc(Cl)ccc42)N3CC2CC2)cc1 [Compound I-285],8,–
O=C(O)c1ccc(CN2CC[C@H]3[C@@H](C2=O)[C@H](c2cccc(Cl)c2F)[C@]2(C(=O)Nc4cc(Cl)ccc42)N3CC2CC2)cc1 [Compound I-208],210,–
O=C1NC[C@H]2[C@@H]1[C@H](c1cccc(Cl)c1F)[C@]1(C(=O)Nc3cc(Cl)ccc31)N2CC1CC1 [Compound I-39],32,–
CCOc1cccc(CN2[C@H]3CCNC(=O)[C@H]3[C@H](c3cccc(Cl)c3)[C@]23C(=O)Nc2cc(Cl)ccc23)c1 [Compound I-7],30,–
O=C1[C@@H]2[C@H](CCN1c1ccncc1)N(CC1CC1)[C@@]1(C(=O)Nc3cc(Cl)ccc31)[C@H]2c1cccc(Cl)c1F [Compound I-92],193,–
O=C1NC[C@H]2[C@@H]1[C@H](c1cccc(Cl)c1F)[C@]1(C(=O)Nc3cc(Cl)ccc31)N2CC1CC1 [Compound I-40],33,–
O=C(O)CNc1ccc(N2CC[C@H]3[C@@H](C2=O)[C@H](c2cccc(Cl)c2F)[C@]2(C(=O)Nc4cc(Cl)ccc42)N3CC2CC2)cc1 [Compound I-306],67,–
CCOc1cccc(CN2[C@H]3CCNC(=O)[C@H]3[C@H](c3cccc(Cl)c3F)[C@]23C(=O)Nc2nc(Cl)ccc23)c1 [Compound I-9],30,–
CC(=O)Nc1ccc(N2CC[C@H]3[C@@H](C2=O)[C@H](c2cccc(Cl)c2F)[C@]2(C(=O)Nc4cc(Cl)ccc42)N3CC2CC2)cc1 [Compound I-296],58,–
O=C(O)c1ccc(N2C[C@@H]3[C@H](C2=O)[C@@H](c2cccc(Cl)c2F)[C@@]2(C(=O)Nc4cc(Cl)ccc42)N3CC2CC2)cc1 [Compound I-218],460,–
Cc1ccc2c(c1)NC(=O)[C@]21[C@@H](c2cccc(Cl)c2F)[C@@H]2C(=O)NCC[C@@H]2N1CC1CC1 [Compound I-23],290,–
Nc1ccc(N2CC[C@H]3[C@@H](C2=O)[C@H](c2cccc(Cl)c2F)[C@]2(C(=O)Nc4cc(Cl)ccc42)N3CC2CC2)cc1 [Compound I-292],164,–

# From patent US10576064B2, “Spiro[3H-indole-3,2′-pyrrolidin]-2(1H)-one compounds and derivatives as MDM2-P53 inhibitors” (Boehringer Ingelheim International GmbH, priority 2014, dated 2020)
